Measurements reported in patent US9221783B2, “Phenylalkyl sulfamate compound and muscle relaxant composition comprising the same” (BIO-PHARM SOLUTIONS CO., LTD., priority 2012, dated 2015).

Test system: male mice (ICR)
Assay: Muscle relaxation activity by grip strength test (forelimbs)
Assay type: in vivo
Details: intraperitoneal; for Grip strength, percentage compared to the vehicle only (100%): dose 200 (unit not given)
Experimental: For testing, male mice (ICR) were purchased from ORIENT BIO INC. (Korea), divided into several groups with 6 mice in each group, and were adapted for 4-5 days. The mice having the weight ranging from 19 g to 26 g were employed for the test. The pharmacological effect of the test compounds on muscle relaxation was evaluated by Rotarod test, grip strength test, and muscular force (wire hang) test. All mice were adapted to the test environment at one hour before starting the tests. The pharmacological effects of all the test compounds were evaluated by administration through peritoneal cavity of the mice (10 ul/g, bw).
The test was conducted before and after administration of the compounds to evaluate the effects thereof. […] The mouse was made to grip the rod with its forelimbs, and its tail was pulled, where the force at which the mouse detached from the rod was recorded. The instrument indicated the force in grams. All of the mice were given 3 opportunities for test, and the 3 highest values among the test opportunities were selected and the mean value was used as the test result. […] Psychopharmacol. 110: 92-96’.
The obtained results are shown as mean±sem. The difference between the groups was statistically analyzed by ANOVA, and then, further examined by Dunnett's test or Bonferroni test. If p is less than 0.05, it was determined that the difference between the groups had statistical significance.

For CCC1(CC)O[C@@H](COS(N)(=O)=O)[C@H](c2ccccc2Cl)O1 [Example 8, ((4S,4S)-5-(2-chlorophenyl)-2,2-diethyl-1,3-dioxolan-4-yl)methyl sulfamate], the “Grip strength, percentage compared to the vehicle only (100%)” value (“Grip strength, percentage … (100%)” below) was 200 (59.6%).

For NS(=O)(=O)OC[C@@H]1OC2(CCCC2)O[C@H]1c1ccccc1Cl [Example 10, ((2S,3S)-3-(2-chlorophenyl)-1,4-dioxaspiro[4,4]nonan-2-yl)methyl sulfamate], the “Grip strength, percentage … (100%)” value was 200 (91.2%).

NS(=O)(=O)OC[C@@H]1OC2(CCCCC2)O[C@H]1c1ccccc1Cl [Example 12, ((2S,3S)-3-(2-chlorophenyl)-1,4-dioxaspiro[4,5]decan-2-yl)methyl sulfamate] was tested, and the “Grip strength, percentage … (100%)” value was 200 (57.7%).

With CC1(C)O[C@H](c2ccccc2I)[C@@H](COS(N)(=O)=O)O1 [Example 27, ((4R,5R)-5-(2-iodophenyl)-2,2-dimethyl-1,3-dioxolan-4-yl)methyl sulfamate] the ED50 (Mus musculus, ip, ED50 = 50% of muscle relaxation activity compared to vehicle only (100%), determined at 0.5 h (time of maximum effect)) was 378 mg/kg.

In the case of CC1(C)O[C@@H](COS(N)(=O)=O)[C@H](c2ccc(Cl)cc2Cl)O1 [Example 40, ((4S,5S)-5-(2,4-dichlorophenyl)-2,2-dimethyl-1,3-dioxolan-4-yl)methyl sulfamate], the “Grip strength, percentage … (100%)” value was 200 (79.3%).

With CC1(C)O[C@@H](COS(N)(=O)=O)[C@H](c2c(Cl)cccc2Cl)O1 [Example 52, ((4S,5S)-5-(2,6-dichlorophenyl)-2,2-dimethyl-1,3-dioxolan-4-yl)methyl sulfamate] the “Grip strength, percentage … (100%)” value was 200 (28.2%).

CCC1(CC)O[C@@H](COS(N)(=O)=O)[C@H](c2ccccc2N)O1 [Example 70, ((4S,5S)-5-(2-aminophenyl)-2,2-diethyl-1,3-dioxolan-4-yl)methyl sulfamate] was tested, and the “Grip strength, percentage … (100%)” value was 200 (78.6%).

Nc1ccccc1[C@@H]1OC2(CCCC2)O[C@H]1COS(N)(=O)=O [Example 72, ((2S,3S)-3-(2-aminophenyl)-1,4-dioxaspiro[4,4]nonan-2-yl)methyl sulfamate] was tested, and the “Grip strength, percentage … (100%)” value was 200 (87.0%).

Nc1ccccc1[C@@H]1OC2(CCCCC2)O[C@H]1COS(N)(=O)=O [Example 74, ((2S,3S)-3-(2-aminophenyl)-1,4-dioxaspiro[4,5]decan-2-yl)methyl sulfamate] was tested, and the “Grip strength, percentage … (100%)” value was 200 (88.1%).

For Nc1ccccc1[C@@H]1OC(c2ccccc2)O[C@H]1COS(N)(=O)=O (stereo partly drawn) [Example 76, ((4S,5S)-5-(2-aminophenyl)-2-phenyl-1,3-dioxolan-4-yl)methyl sulfamate], the “Grip strength, percentage … (100%)” value was 200 (78.5%).

In the case of NS(=O)(=O)OC[C@@H]1OC(=O)O[C@H]1c1ccccc1[N+](=O)[O-] [Example 90, ((4S,5S)-5-(2-nitrophenyl)-2-oxo-1,3-dioxolan-4-yl)methyl sulfamate], the “Grip strength, percentage … (100%)” value was 200 (43.8%).

For Cc1ccccc1[C@@H]1OC(C)(C)O[C@H]1COS(N)(=O)=O [Example 92, ((4S,5S)-5-(2-methylphenyl)-2,2-dimethyl-1,3-dioxolan-4-yl)methyl sulfamate], the “Grip strength, percentage … (100%)” value was 200 (46.2%).

With CNc1ccccc1[C@@H]1OC(C)(C)O[C@H]1COS(=O)(=O)NC [Example 104, ((4S,5S)-5-(2-methylaminophenyl)-2,2-dimethyl-1,3-dioxolan-4-yl)methyl methylsulfamate] the “Grip strength, percentage … (100%)” value was 200 (71.3%).

For CC1(C)O[C@@H](COS(N)(=O)=O)[C@H](c2ccccc2)O1 [Example 106, ((4S,5S)-5-phenyl-2,2-dimethyl-1,3-dioxolan-4-yl)methyl sulfamate], the “Grip strength, percentage … (100%)” value was 200 (62.8%).

With CCC1(CC)O[C@@H](COS(N)(=O)=O)[C@H](c2ccccc2)O1 [Example 108, ((4S,5S)-5-phenyl-2,2-diethyl-1,3-dioxolan-4-yl)methyl sulfamate] the “Grip strength, percentage … (100%)” value was 200 (66.8%).

In the case of NS(=O)(=O)OC[C@@H]1OC2(CCCC2)O[C@H]1c1ccccc1 [Example 110, ((2S,3S)-3-phenyl-1,4-dioxaspiro[4,4]nonan-2-yl)methyl sulfamate], the “Grip strength, percentage … (100%)” value was 200 (62.9%).

With NS(=O)(=O)OC[C@@H]1OC2(CCCCC2)O[C@H]1c1ccccc1 [Example 112, ((2S,3S)-3-phenyl-1,4-dioxaspiro[4,5]decan-2-yl)methyl sulfamate] the “Grip strength, percentage … (100%)” value was 200 (33.2%).

In the case of CC1(C)O[C@H](CCOS(N)(=O)=O)[C@@H](Cc2ccccc2)O1 [Example 114, 2-((4R,5R)-5-benzyl-2,2-dimethyl-1,3-dioxolan-4-yl)ethyl sulfamate], the “Grip strength, percentage … (100%)” value was 200 (75.4%).

With CCC1(CC)O[C@H](CCOS(N)(=O)=O)[C@@H](Cc2ccccc2)O1 [Example 116, 2-((4R,5R)-5-benzyl-2,2-diethyl-1,3-dioxolan-4-yl)ethyl sulfamate] the “Grip strength, percentage … (100%)” value was 200 (81.6%).

For NS(=O)(=O)OCC[C@H]1OC2(CCCC2)O[C@@H]1Cc1ccccc1 [Example 118, 2-((2R,3R)-3-benzyl-1,4-dioxaspiro[4,4]nonan-2-yl)ethyl sulfamate], the “Grip strength, percentage … (100%)” value was 200 (83.7%).

In the case of NS(=O)(=O)OCC[C@H]1OC2(CCCCC2)O[C@@H]1Cc1ccccc1 [Example 120, 2-((2R,3R)-3-benzyl-1,4-dioxaspiro[4,5]decan-2-yl)ethyl sulfamate], the “Grip strength, percentage … (100%)” value was 200 (80.5%).

In the case of CC1(C)O[C@H](COS(N)(=O)=O)[C@@H](Cc2ccccc2)O1 [Example 122, ((4R,5R)-5-benzyl-2,2-dimethyl-1,3-dioxolan-4-yl)methyl sulfamate], the “Grip strength, percentage … (100%)” value was 200 (61.6%).

With CCC1(CC)O[C@H](COS(N)(=O)=O)[C@@H](Cc2ccccc2)O1 [Example 124, ((4R,5R)-5-benzyl-2,2-diethyl-1,3-dioxolan-4-yl)methyl sulfamate] the “Grip strength, percentage … (100%)” value was 200 (81.0%).

NS(=O)(=O)OC[C@H]1OC2(CCCC2)O[C@@H]1Cc1ccccc1 [Example 126, ((2R,3R)-3-benzyl-1,4-dioxaspiro[4,4]nonan-2-yl)methyl sulfamate] was tested, and the “Grip strength, percentage … (100%)” value was 200 (76.7%).

With NS(=O)(=O)OC[C@H]1OC2(CCCCC2)O[C@@H]1Cc1ccccc1 [Example 128, ((2R,3R)-3-benzyl-1,4-dioxaspiro[4,5]decan-2-yl)methyl sulfamate] the “Grip strength, percentage … (100%)” value was 200 (81.4%).

With CC1(C)O[C@@H](CCOS(N)(=O)=O)[C@H](c2ccccc2)O1 [Example 130, 2-((4S,5S)-5-phenyl-2,2-dimethyl-1,3-dioxolan-4-yl)ethyl sulfamate] the “Grip strength, percentage … (100%)” value was 200 (91.4%).

In the case of CCC1(CC)O[C@@H](CCOS(N)(=O)=O)[C@H](c2ccccc2)O1 [Example 132, 2-((4S,5S)-5-phenyl-2,2-diethyl-1,3-dioxolan-4-yl)ethyl sulfamate], the “Grip strength, percentage … (100%)” value was 200 (25.7%).

With NS(=O)(=O)OCC[C@@H]1OC2(CCCC2)O[C@H]1c1ccccc1 [Example 134, 2-((2S,3S)-3-phenyl-1,4-dioxaspiro[4,4]nonan-2-yl)ethyl sulfamate] the “Grip strength, percentage … (100%)” value was 200 (90.1%).

NS(=O)(=O)OCC[C@@H]1OC2(CCCCC2)O[C@H]1c1ccccc1 [Example 136, 2-((2S,3S)-3-phenyl-1,4-dioxaspiro[4,5]decan-2-yl)ethyl sulfamate] was tested, and the “Grip strength, percentage … (100%)” value was 200 (80.8%).

For CC1(C)O[C@H](CCOS(N)(=O)=O)[C@@H](Cc2ccccc2Cl)O1 [Example 138, 2-((4R,5R)-5-(2-chlorobenzyl)-2,2-dimethyl-1,3-dioxolan-4-yl)ethyl sulfamate], the “Grip strength, percentage … (100%)” value was 200 (70.1%).

For CCC1(CC)O[C@H](CCOS(N)(=O)=O)[C@@H](Cc2ccccc2Cl)O1 [Example 140, 2-((4R,5R)-5-(2-chlorobenzyl)-2,2-diethyl-1,3-dioxolan-4-yl)ethyl sulfamate], the “Grip strength, percentage … (100%)” value was 200 (73.4%).

In the case of NS(=O)(=O)OCC[C@H]1OC2(CCCC2)O[C@@H]1Cc1ccccc1Cl [Example 142, 2-((2R,3R)-3-(2-chlorobenzyl)-1,4-dioxaspiro[4,4]nonan-2-yl)ethyl sulfamate], the “Grip strength, percentage … (100%)” value was 200 (66.8%).

In the case of NS(=O)(=O)OCC[C@H]1OC2(CCCCC2)O[C@@H]1Cc1ccccc1Cl [Example 144, 2-((2R,3R)-3-(2-chlorobenzyl)-1,4-dioxaspiro[4,5]decan-2-yl)ethyl sulfamate], the “Grip strength, percentage … (100%)” value was 200 (62.0%).

In the case of CC1(C)O[C@H](COS(N)(=O)=O)[C@@H](Cc2ccccc2Cl)O1 [Example 146, ((4R,5R)-5-(2-chlorobenzyl)-2,2-dimethyl-1,3-dioxolan-4-yl)methyl sulfamate], the “Grip strength, percentage … (100%)” value was 200 (79.2%).
